Results: ChEMBL document CHEMBL1201862, “PubChem BioAssay data set” (2004)
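These data come from cells grown in 96-well plates and exposed to compound for 48 hours at five concentrations. At the GI50, growth is halved.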 The source made the active and inactive calls. Rule as the data show it: active = GI50 up to about 1.1 µM and inactive = higher.

Columns and labels:
Assay in all cases: DTP human tumour cell line panel, 48 h
[1] = system: 786-0
[2] = system: A498
[3] = system: A549
[4] = system: ACHN
[5] = system: CAKI-1
[6] = system: CCRF-CEM
[7] = system: COLO 205
[8] = system: DLD-1
[9] = system: DMS-114
[10] = system: DMS-273
[11] = system: EKVX
[12] = system: HCC 2998
[13] = system: HCT-116
[14] = system: HCT-15
[15] = system: HL-60
[16] = system: HOP-18
[17] = system: HOP-62
[18] = system: HOP-92
[19] = system: HT-29
[20] = system: IGROV-1
[21] = system: K562
[22] = system: KM-20L2
[23] = system: KM12
[24] = system: LOX IMVI
[25] = system: LXFL 529
[26] = system: M14
[27] = system: M19-MEL
[28] = system: MOLT-4
[29] = system: Malme-3M
[30] = system: NCI-H23
[31] = system: NCI-H460
[32] = system: NCI-H522
[33] = system: OVCAR-3
[34] = system: OVCAR-4
[35] = system: OVCAR-5
[36] = system: OVCAR-8
[37] = system: RPMI-8226
[38] = system: RXF 393
[39] = system: SF-268
[40] = system: SF-295
[41] = system: SF-539
[42] = system: SK-MEL-28
[43] = system: SK-MEL-2
[44] = system: SK-MEL-5
[45] = system: SK-OV-3
[46] = system: SN12C
[47] = system: SNB-19
[48] = system: SNB-75
[49] = system: SNB-78
[50] = system: SR
[51] = system: SW-620
[52] = system: TK-10
[53] = system: U-251
[54] = system: UACC-257
[55] = system: UACC-62
[56] = system: UO-31
[57] = system: XF498

Structure (SMILES): N=c1n(CC(=O)NC23CC4CC(CC(C4)C2)C3)c2ccccc2n1CC(=O)NC12CC3CC(CC(C3)C1)C2
- GI50 [1]: 1800 nM (inactive)
- GI50 [2]: 1700 nM (inactive)
- GI50 [3]: 2070 nM (inactive)
- GI50 [4]: 2000 nM (inactive)
- GI50 [5]: 12000 nM (inactive)
- GI50 [6]: 2800 nM (inactive)
- GI50 [7]: 1890 nM (inactive)
- GI50 [8]: 1900 nM (inactive)
- GI50 [9]: 1930 nM (inactive)
- GI50 [10]: 1830 nM (inactive)
- GI50 [11]: 2260 nM (inactive)
- GI50 [12]: 1360 nM (inactive)
- GI50 [13]: 2030 nM (inactive)
- GI50 [14]: 1900 nM
- GI50 [15]: 2670 nM (inactive)
- GI50 [16]: 2030 nM (inactive)
- GI50 [17]: 2020 nM (inactive)
- GI50 [18]: 1650 nM (inactive)
- GI50 [19]: 1800 nM (inactive)
- GI50 [20]: 1560 nM (inactive)
- GI50 [21]: 2820 nM (inactive)
- GI50 [22]: 1810 nM (inactive)
- GI50 [23]: 1610 nM (inactive)
- GI50 [24]: 1630 nM (inactive)
- GI50 [25]: 2040 nM (inactive)
- GI50 [26]: 1960 nM (inactive)
- GI50 [27]: 1720 nM (inactive)
- GI50 [28]: 2640 nM (inactive)
- GI50 [29]: 1670 nM (inactive)
- GI50 [30]: 1740 nM (inactive)
- GI50 [31]: 1780 nM (inactive)
- GI50 [32]: 1900 nM (inactive)
- GI50 [33]: 1880 nM (inactive)
- GI50 [34]: 1790 nM (inactive)
- GI50 [35]: 1690 nM (inactive)
- GI50 [36]: 1680 nM (inactive)
- GI50 [37]: 2210 nM (inactive)
- GI50 [38]: 1750 nM (inactive)
- GI50 [39]: 1950 nM (inactive)
- GI50 [40]: 2060 nM (inactive)
- GI50 [41]: 1920 nM (inactive)
- GI50 [42]: 1790 nM (inactive)
- GI50 [43]: 17200 nM (inactive)
- GI50 [44]: 1820 nM (inactive)
- GI50 [45]: 15700 nM (inactive)
- GI50 [46]: 1870 nM (inactive)
- GI50 [47]: 1660 nM (inactive)
- GI50 [48]: 2290 nM (inactive)
- GI50 [49]: 2910 nM (inactive)
- GI50 [50]: 1870 nM (inactive)
- GI50 [51]: 1630 nM (inactive)
- GI50 [52]: 1660 nM (inactive)
- GI50 [53]: 1660 nM (inactive)
- GI50 [54]: 1730 nM (inactive)
- GI50 [55]: 1960 nM (inactive)
- GI50 [56]: 13200 nM (inactive)
- GI50 [57]: 1520 nM (inactive)
